Columns and labels:
Assay in all cases: Competitive isoTOP-ABPP, cell lysates;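 for isoTOP-ABPP reactivity profile ratio, Q99873 C109: Heavy/light ratio DMSO over fragment-treated so higher means more cysteine engagement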
Type in all cases: binding
[1] = molecular target: T1, PDIA6 C55 (Q15084) (Homo sapiens, UniProt Q15084); conditions: for isoTOP-ABPP ratio Q15084_C55: 500 μM, invitro, 231
T1 sequence (Q15084 20-440): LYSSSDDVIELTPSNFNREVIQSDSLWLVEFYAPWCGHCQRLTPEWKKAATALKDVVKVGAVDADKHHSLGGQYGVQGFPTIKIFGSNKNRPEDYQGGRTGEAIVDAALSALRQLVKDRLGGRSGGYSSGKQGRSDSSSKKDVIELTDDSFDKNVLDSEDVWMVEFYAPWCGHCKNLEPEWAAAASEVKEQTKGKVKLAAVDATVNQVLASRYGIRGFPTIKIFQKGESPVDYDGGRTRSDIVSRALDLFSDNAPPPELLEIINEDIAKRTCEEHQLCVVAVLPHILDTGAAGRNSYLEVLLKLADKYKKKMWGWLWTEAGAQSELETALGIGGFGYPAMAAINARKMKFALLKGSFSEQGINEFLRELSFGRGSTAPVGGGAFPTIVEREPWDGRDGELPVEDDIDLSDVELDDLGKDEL

[2] = molecular target: PRMT1 C109 (Q99873) (Homo sapiens, UniProt Q99873); conditions: for isoTOP-ABPP ratio, Q99873_C109: 500 μM, invitro, 231;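 for isoTOP-ABPP reactivity profile ratio, Q99873 C109: Heavy/light ratio DMSO over fragment-treated so higher means more cysteine engagement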
PRMT1 C109 (Q99873), sequence (Q99873 whole entry, the tested form may be a part): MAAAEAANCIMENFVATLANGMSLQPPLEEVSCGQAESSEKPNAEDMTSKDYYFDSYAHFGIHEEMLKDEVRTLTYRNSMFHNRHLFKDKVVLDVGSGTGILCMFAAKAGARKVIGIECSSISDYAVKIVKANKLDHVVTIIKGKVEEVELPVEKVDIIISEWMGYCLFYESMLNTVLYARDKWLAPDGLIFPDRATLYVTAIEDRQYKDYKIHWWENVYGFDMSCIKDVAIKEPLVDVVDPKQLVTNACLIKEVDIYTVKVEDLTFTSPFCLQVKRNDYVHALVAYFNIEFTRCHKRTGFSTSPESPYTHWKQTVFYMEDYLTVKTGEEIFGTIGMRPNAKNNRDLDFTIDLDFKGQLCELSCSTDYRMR

[3] = molecular target: T2, UCHL3 C95 (P15374) (Homo sapiens, UniProt P15374); conditions: for isoTOP-ABPP ratio (reactivity profile), P15374_C95: 500 μm in-vitro ramos
T2 sequence (P15374 1-230): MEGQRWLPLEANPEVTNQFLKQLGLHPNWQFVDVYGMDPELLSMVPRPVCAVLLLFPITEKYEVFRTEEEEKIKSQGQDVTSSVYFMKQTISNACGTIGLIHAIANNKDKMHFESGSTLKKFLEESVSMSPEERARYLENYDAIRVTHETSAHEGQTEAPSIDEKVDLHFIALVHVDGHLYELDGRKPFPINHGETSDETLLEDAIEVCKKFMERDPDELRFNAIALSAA

[4] = molecular target: ZNF217 C286 (O75362) (Homo sapiens, UniProt O75362)
ZNF217 C286 (O75362), sequence (O75362 whole entry): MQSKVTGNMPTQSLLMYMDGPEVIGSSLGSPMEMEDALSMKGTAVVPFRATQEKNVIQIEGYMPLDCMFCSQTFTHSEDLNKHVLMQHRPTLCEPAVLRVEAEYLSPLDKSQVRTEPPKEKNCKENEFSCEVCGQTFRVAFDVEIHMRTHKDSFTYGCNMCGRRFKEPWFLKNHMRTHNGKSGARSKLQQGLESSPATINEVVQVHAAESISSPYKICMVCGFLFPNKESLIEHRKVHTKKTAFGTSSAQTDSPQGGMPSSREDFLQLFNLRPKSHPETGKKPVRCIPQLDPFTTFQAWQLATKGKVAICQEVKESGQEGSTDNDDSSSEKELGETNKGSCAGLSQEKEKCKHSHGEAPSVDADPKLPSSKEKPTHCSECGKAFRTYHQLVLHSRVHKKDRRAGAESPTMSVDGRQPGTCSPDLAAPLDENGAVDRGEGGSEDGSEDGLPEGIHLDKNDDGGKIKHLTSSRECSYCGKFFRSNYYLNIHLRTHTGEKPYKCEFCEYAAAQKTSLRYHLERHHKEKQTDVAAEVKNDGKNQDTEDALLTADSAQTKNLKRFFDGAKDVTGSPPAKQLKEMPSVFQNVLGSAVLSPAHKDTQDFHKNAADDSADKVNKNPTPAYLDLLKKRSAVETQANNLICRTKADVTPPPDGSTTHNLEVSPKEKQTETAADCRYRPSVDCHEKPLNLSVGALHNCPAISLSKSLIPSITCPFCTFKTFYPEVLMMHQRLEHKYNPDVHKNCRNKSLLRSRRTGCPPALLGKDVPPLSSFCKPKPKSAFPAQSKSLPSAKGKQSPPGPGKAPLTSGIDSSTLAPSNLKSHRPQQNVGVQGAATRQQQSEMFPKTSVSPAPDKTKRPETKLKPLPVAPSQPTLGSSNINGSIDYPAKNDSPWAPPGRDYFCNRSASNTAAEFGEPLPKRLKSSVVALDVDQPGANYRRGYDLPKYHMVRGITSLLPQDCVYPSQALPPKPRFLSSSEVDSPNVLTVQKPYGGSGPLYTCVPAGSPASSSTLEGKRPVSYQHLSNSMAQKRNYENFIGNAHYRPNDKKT

[5] = molecular target: T3, IRF4 C194 (Q15306) (Homo sapiens, UniProt Q15306); conditions: for isoTOP-ABPP ratio (reactivity profile), Q15306_C194: 500 μm in-vitro ramos; for isoTOP-ABPP reactivity ratio, Q15306_C194: 500 μm, in-vitro_ramos
T3 sequence (Q15306 1-451): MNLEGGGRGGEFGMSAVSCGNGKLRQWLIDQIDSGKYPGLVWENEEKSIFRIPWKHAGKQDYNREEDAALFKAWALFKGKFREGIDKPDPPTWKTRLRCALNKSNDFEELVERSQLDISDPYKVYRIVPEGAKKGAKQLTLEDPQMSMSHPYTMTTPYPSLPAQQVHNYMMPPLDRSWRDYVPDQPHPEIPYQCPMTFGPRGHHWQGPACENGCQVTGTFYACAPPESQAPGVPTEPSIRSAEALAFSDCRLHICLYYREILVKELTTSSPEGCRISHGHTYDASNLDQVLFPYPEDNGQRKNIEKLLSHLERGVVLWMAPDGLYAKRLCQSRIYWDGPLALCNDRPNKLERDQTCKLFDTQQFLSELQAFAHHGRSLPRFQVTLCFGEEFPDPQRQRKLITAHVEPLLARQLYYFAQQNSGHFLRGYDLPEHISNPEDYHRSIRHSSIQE

Row | Compound | isoTOP-ABPP ratio (reactivity profile), Q15306_C194 [5] | isoTOP-ABPP ratio (reactivity profile), Q15084_C55 ([1]; 500 μm in-vitro ramos) | isoTOP-ABPP ratio (reactivity profile), Q99873_C109 ([2]; 500 μm in-vitro ramos) | isoTOP-ABPP ratio (reactivity profile), P15374_C95 [3] | isoTOP-ABPP reactivity ratio, Q15306_C194 [5] | isoTOP-ABPP reactivity ratio, Q15084_C55 ([1]; 500 μm, in-vitro_ramos_231) | isoTOP-ABPP reactivity ratio, Q99873_C109 ([2]; 500 μm, in-vitro_ramos) | isoTOP-ABPP reactivity ratio, Q99873_C109 ([2]; 500 μm, in-vitro_ramos_231) | other results
1 | O=C(CCl)NC1C(O)OC(CO)C(O)C1O (mixture of isomers) [compound 44] |  |  |  |  |  |  |  |  | isoTOP-ABPP reactivity profile ratio, Q15084_C55 ([1]; 500 μm, in-vitro_ramos_231): 1.0; isoTOP-ABPP reactivity profile ratio, Q99873_C109 ([2]; 500 μm, in-vitro_ramos_231): 0.8; isoTOP-ABPP reactivity profile ratio, P15374_C95 ([3]; 500 μm, in-vitro_ramos_231): 0.8
2 | CNS(=O)(=O)C=Cc1ccc2c(ccn2Cc2ccccc2)c1 [compound 6] |  |  |  |  |  |  |  |  | isoTOP-ABPP ratio Q15084_C55 [1]: 1.0; isoTOP-ABPP ratio, Q99873_C109 [2]: 1.1; isoTOP-ABPP ratio, P15374_C95 ([3]; 500 μM, invitro, 231): 1.1; isoTOP-ABPP ratio O75362_C286 ([4]; 500 μM, invitro, 231): 0.9
3 | O=C(CCl)N1CCOCC1 [compound 22] | 1.1 | 1.6 | 1.0 | 0.7 |  |  |  |  | isoTOP-ABPP ratio (reactivity profile), Q15084_C55 ([1]; 500 μm in-vitro ramos_231): 2.1; isoTOP-ABPP ratio (reactivity profile), Q99873_C109 ([2]; 500 μm in-vitro ramos_231): 1.0
4 | CC(Br)C(=O)Nc1cc(C(F)(F)F)cc(C(F)(F)F)c1 (centres unmarked) [compound 24] | 1.9 | 1.3 | 1.0 | 1.1 |  |  |  |  | 
5 | O=C(/C=C/c1ccccc1)Nc1cc(C(F)(F)F)cc(C(F)(F)F)c1 [compound 26] | 1.1 | 0.9 | 0.9 | 0.8 |  |  |  |  | 
6 | CC(C)(C)c1cc(NC(=O)CCl)on1 [compound 32] |  |  |  |  | 3.7 | 20.0 | 1.8 | 1.7 | isoTOP-ABPP reactivity ratio, Q15084_C55 ([1]; 500 μm, in-vitro_ramos): 20.0; isoTOP-ABPP reactivity ratio, P15374_C95 ([3]; 500 μm, in-vitro_ramos): 1.0; isoTOP-ABPP reactivity ratio, P15374_C95 ([3]; 500 μm, in-vitro_ramos_231): 1.2
7 | C=CC(=O)Nc1cc(C)c(Br)cc1C [compound 40] |  |  |  |  | 1.1 | 0.8 | 1.3 | 0.8 | isoTOP-ABPP reactivity ratio, P15374_C95 ([3]; 500 μm, in-vitro_ramos): 0.9

Now from value to compound, other results behind:

Row | isoTOP-ABPP ratio (reactivity profile), Q15306_C194 [5] | isoTOP-ABPP ratio (reactivity profile), Q15084_C55 ([1]; 500 μm in-vitro ramos) | isoTOP-ABPP ratio (reactivity profile), Q99873_C109 ([2]; 500 μm in-vitro ramos) | isoTOP-ABPP ratio (reactivity profile), P15374_C95 [3] | isoTOP-ABPP reactivity ratio, Q15306_C194 [5] | isoTOP-ABPP reactivity ratio, Q15084_C55 ([1]; 500 μm, in-vitro_ramos_231) | isoTOP-ABPP reactivity ratio, Q99873_C109 ([2]; 500 μm, in-vitro_ramos) | isoTOP-ABPP reactivity ratio, Q99873_C109 ([2]; 500 μm, in-vitro_ramos_231) | Compound | other results
8 | 2.2 | 1.0 | 1.2 | 0.7 |  |  |  |  | C=CC(=O)N(Cc1cccnc1)c1ccc(Oc2ccccc2)c(C(F)(F)F)c1 [compound 15] | isoTOP-ABPP ratio Q15084_C55 [1]: 0.8; isoTOP-ABPP ratio, Q99873_C109 [2]: 0.9
9 |  |  |  |  |  | 0.9 | 1.1 | 0.8 | O=C(CCl)N(Cc1ccc(F)cc1)C12CC3CC(CC(C3)C1)C2 [compound 34] | 
10 |  |  |  |  | 1.0 | 0.9 | 1.0 | 0.8 | O=C(CCl)Nc1ccccc1C1CCCCCC1 [compound 35] | 
11 |  |  |  |  | 0.9 |  | 1.0 |  | C=CC(=O)N1CCC(c2noc3ccc(F)cc23)CC1 [compound 37] | isoTOP-ABPP reactivity ratio, Q15084_C55 ([1]; 500 μm, in-vitro_ramos): 1.0; isoTOP-ABPP reactivity ratio, O75362_C286 ([4]; 500 μm, in-vitro_ramos): 0.9
